The test system of series [1] is p-388 leukemia cells. In words: Antitumour activity, P-388 leukemia in BDF1 mice, intraperitoneal-intraperitoneal (Test Example 1). Particulars: Mus musculus, P388, ip, 720 h, read-out: ILS (Increase Life Span); for ILS at 200 mg/kg: 200 mg/kg/day i.p.; for ILS at 400 mg/kg: 400 mg/kg/day i.p. The series is classed as in vivo. The method, then: To BDF1 mice, p-388 leukemia cells were intraperitoneally inoculated in an amount of 1×10^6 cells/mouse. A test drug was intraperitoneally administered twice, i.e. one day and four days after the inoculation. […] The increase life span ILS (%)^* was obtained with the number of survival days of mice of the control group to which a physiological saline was administered, being evaluated as 100. The drugs were dispersions obtained by adding small amounts of surfactants (e.g. Tween-80) to the test compounds.
*ILS(%): Increase Life Span, calculated in accordance with the following
formula: ILS(%) = MST - 100, where MST is the ratio of median survival
time of test and control animals.

For series [2], the system named is p-388 leukemia cells. In words: Antitumour activity, P-388 leukemia in BDF1 mice, intraperitoneal-oral (Test Example 2). Format: in vivo. Particulars: one and four days after i.p. inoculation, Formulation Example 4. From the text:
To BDF1 mice, p-388 leukemia cells were intraperitoneally inoculated in an amount of 1×10^6 cells/mouse. A test drug was orally administered twice i.e. one day and four days after the inoculation. […] The test drugs and comparative drugs were formulated in accordance with Formulation Example 4 given hereinafter.
*ILS(%), **Comparative Compound No. 1 and ***Comparative Compound No. 2
are the same as mentioned above in the notes of Table 1.
(§1) The Compound No. 1 of the present invention was preliminarily pulverized by a centrifugal pulverizer. On the other hand, 5 parts by weight of polyoxyethylene (60) hardened castor oil, 0.2 part by weight of silicone and 0.3 part by weight of a polyoxyethylene-polyoxypropylene block polymer were added to 79.5 parts by weight of a physiological saline to obtain an aqueous solution, to which 10 parts by weight of the above pulverized Compound No. 1 of the present invention was added. The mixture was pulverized in a wet system by a sand mill using glass beads (80% of particles having a particle size of not larger than 2 μm). Then, 5 parts by weight of xanthane gum (2% solution) was added thereto to obtain an aqueous suspension.

Series [3] in a line: Acute toxicity in ddY mice, intraperitoneal. Particulars: mouse, in vivo, ip, ddY mice (10 animals), formulated per Formulation Example 4. The protocol: To ddY mice (10 animals), a drug containing one of Compound Nos. 1-7 and 9-13 of the present invention formulated in accordance with Formulation Example 4 was intraperitoneally administered, and the LD50 value was measured and found to be at least 100 mg/kg in each case, and at least 50 mg/kg in the case of Compound Nos. 8 and 14 of the present invention.
as §1

The mark [4] stands for this setting: one and four days after i.p. inoculation, 30 days observation.
Where [5] appears, read: 100 mg/kg/day i.p., one and four days after i.p. inoculation, 30 days observation.

Like-named read-outs stand apart in the source and are kept apart here. Some results are limits rather than exact numbers.

For `O=c1[nH]cc(F)c(=O)[nH]1` [5-Fluorouracil, reference compound], the ILS at 60 mg/kg with p-388 leukemia cells [1] was 85%.

Consider `O=C(NC(=O)c1ccccc1Cl)Nc1ccc(Oc2ccc(Cl)nn2)c(Cl)c1` [Comparative Compound No. 1, N--(2chlorobenzoyl)-N'--[3chloro-4-(3-chloro-6-pyridazinyloxy)phenyl]urea, reference compound], for which, in the series on p-388 leukemia cells [1] (setting [4]), the ILS at 200 mg/kg came out at 24% and the ILS at 400 mg/kg came to 42%. In addition, the “ILS (Increase Life Span)” value in the series on p-388 leukemia cells [2] (800 mg/kg/day oral) stood at 10%.

For `O=C(NC(=O)c1c(Cl)cccc1Cl)Nc1ccc(Oc2ccc(Cl)nn2)c(Cl)c1` [Comparative Compound No. 2, N--(2,6dichlorobenzoyl)-N'--[3chloro-4-(3-chloro-6-pyridazinyloxy)phenyl]rea, reference compound], in the series with p-388 leukemia cells [1] (setting [4]), the ILS at 200 mg/kg was -3% and the ILS at 400 mg/kg turned out to be 5%. The “ILS (Increase Life Span)” value in the series on p-388 leukemia cells [2] (800 mg/kg/day oral) stood at 0%.

Usually LD50 stands for the dose at which mortality reaches 50%. Read a low LD50 as greater toxicity. Regarding `O=C(NC(=O)c1ccccc1[N+](=O)[O-])Nc1ccc(Oc2ccc(Br)nn2)c(Cl)c1` [Compound No. 1, N-(2-nitrobenzoyl)-N'-[4-(6-bromo-3-pyridazinyloxy)3-chlorophenyl]urea], the LD50 in series [3] was ≥ 100 mg/kg. In the series on p-388 leukemia cells [1] (setting [4]), the ILS at 200 mg/kg came to 178%. In the series with p-388 leukemia cells [2] (200 mg/kg/day oral), the “ILS (Increase Life Span)” value was found to be 58%.

Regarding `O=C(NC(=O)c1ccccc1[N+](=O)[O-])Nc1ccc(Oc2ccc(Cl)nn2)c(Cl)c1` [Compound No. 2, N-(2-nitrobenzoyl)-N'-[3-chloro-4-(6-chloro-3pyridazinyloxy)phenyl]urea], the median lethal dose (LD50) in series [3] was ≥ 100 mg/kg. Moreover, in the series with p-388 leukemia cells [1] (setting [4]), the ILS at 200 mg/kg stood at 71%.

For the molecule `O=C(NC(=O)c1ccccc1[N+](=O)[O-])Nc1ccc(Oc2ccc(I)nn2)c(Cl)c1` [Compound No. 3, N-(2-nitrobenzoyl)-N'-[3-chloro-4-(6-iodo-3-pyridazinyloxy)phenyl]urea], the LD50 in series [3] is ≥ 100 mg/kg. Further, the ILS at 100 mg/kg in the series on p-388 leukemia cells [1] (setting [5]) is 92%.

`O=C(NC(=O)c1ccccc1[N+](=O)[O-])Nc1ccc(Oc2cccnn2)c(Cl)c1` [Compound No. 4, N-(2-nitrobenzoyl)-N'-[3-chloro-4-(3-pyridazinyloxy)phenyl]urea]: the LD50 in series [3] is ≥ 100 mg/kg. The ILS at 200 mg/kg with p-388 leukemia cells [1] (setting [4]) was found to be 70%.

As for `O=C(NC(=O)c1ccccc1[N+](=O)[O-])Nc1ccc(Oc2ccc(C(F)(F)F)nn2)c(Cl)c1` [Compound No. 5, N-(2-nitrobenzoyl)-N'-[3-chloro-4-(6-trifluoro-methyl-3-pyridazinyloxy)phenyl]urea], the median lethal dose (LD50) in series [3] is ≥ 100 mg/kg. In the series on p-388 leukemia cells [1] (setting [4]), the ILS at 200 mg/kg is 75%.

`O=C(NC(=O)c1ccccc1[N+](=O)[O-])Nc1ccc(Oc2ccc(Br)nn2)c(Br)c1` [Compound No. 6, N-(2-nitrobenzoyl)-N'-[3-bromo-4-(6-bromo-3-pyridazinyloxy)phenyl]urea]: the LD50 in series [3] was ≥ 100 mg/kg.

Consider `O=C(NC(=O)c1ccccc1[N+](=O)[O-])Nc1ccc(Oc2ccc(Br)nn2)cc1` [Compound No. 7, N-(2-nitrobenzoyl)-N'-[4-(6-bromo-3-pyridazinyloxy)phenyl]urea], for which the LD50 in series [3] is ≥ 100 mg/kg. Also, in the series on p-388 leukemia cells [1], the ILS at 100 mg/kg was > 120%.

`O=C(NC(=O)c1ccccc1[N+](=O)[O-])Nc1ccc(Oc2ccc(Cl)nn2)c(C(F)(F)F)c1` [Compound No. 8, N-(2-nitrobenzoyl)-N'-[4-(6-chloro-3-pyridazinyloxy)-3-trifluoromethylphenyl]urea]: the LD50 in series [3] is ≥ 50 mg/kg. Also, the ILS at 100 mg/kg in the series with p-388 leukemia cells [1] (setting [5]) worked out at 75%.

As to `O=C(NC(=O)c1ccccc1[N+](=O)[O-])Nc1ccc(Oc2ccc(Br)nn2)c(F)c1` [Compound No. 9, N-(2-nitrobenzoyl)-N'-[4-(6-bromo-3-pyridazinyloxy)-3-fluorophenyl]urea], the LD50 in series [3] is ≥ 100 mg/kg. For the same molecule, the ILS at 100 mg/kg with p-388 leukemia cells [1] worked out at 90%. Also, in the series with p-388 leukemia cells [2] (200 mg/kg/day oral), the “ILS (Increase Life Span)” value is on record as 52%.

As for `O=C(NC(=O)c1ccc(Cl)cc1[N+](=O)[O-])Nc1ccc(Oc2ccc(Br)nn2)c(Cl)c1` [Compound No. 10, N-(4-chloro-2-nitrobenzoyl)-N'-[4-(6-bromo-3-pyridazinyloxy)-3-chlorophenyl]urea], the LD50 in series [3] is ≥ 100 mg/kg. In addition, the ILS at 100 mg/kg in the series on p-388 leukemia cells [1] stood at 111%. The “ILS (Increase Life Span)” value in the series with p-388 leukemia cells [2] (400 mg/kg/day oral) was 32%.

With `O=C(NC(=O)c1ccc([N+](=O)[O-])cc1[N+](=O)[O-])Nc1ccc(Oc2ccc(Br)nn2)c(Cl)c1` [Compound No. 11, N-(2,4-dinitrobenzoyl)-N'-[4-(6-bromo-3-pyridazinyloxy)-3-chlorophenyl]urea], the LD50 in series [3] is ≥ 100 mg/kg. Moreover, the ILS at 100 mg/kg with p-388 leukemia cells [1] was determined as 102%.

As for `O=C(NC(=O)c1ccccc1Cl)Nc1ccc(Oc2ccc(Cl)nn2)c(C(F)(F)F)c1` [Compound No. 12, N-(2-chlorobenzoyl)-N'-[4-(6-chloro-3-pyridazinyloxy)-3-trifluoromethylphenyl]urea], the LD50 in series [3] is ≥ 100 mg/kg.

As to `Cc1cc(NC(=O)NC(=O)c2ccccc2[N+](=O)[O-])ccc1Oc1ccc(Cl)nn1` [Compound No. 13, N-(2-nitrobenzoyl)-N'-[4-(6-chloro-3-pyridazinyloxy)-3-methylphenyl]urea], the LD50 in series [3] is ≥ 100 mg/kg.

On to `O=C(NC(=O)c1ccc([N+](=O)[O-])cc1[N+](=O)[O-])Nc1ccc(Oc2ccc(Cl)nn2)c(C(F)(F)F)c1` [Compound No. 14, N-(2,4-dinitrobenzoyl)-N'-[4-(6-chloro-3-pyridazinyloxy)-3-trifluoromethylphenyl]urea], for which the LD50 in series [3] is ≥ 50 mg/kg.

These data come from US4845093A, “N-benzoyl-N'-pyridazinyloxyphenyl urea compounds, and antitumorous compositions containing them, and process for their preparation” (Ishihara Sangyo Kaisha Ltd., priority 1984, dated 1989).
